From patent US11613527B2, “Enzyme inhibitors” (KalVista Pharmaceuticals Limited, priority 2019, dated 2023) come the findings set out here.

Common to all, as to format: biochemical
The target of test [1] is Human KLK1 (Homo sapiens (Human), UniProt P06870). In words: Determination of the IC50 for KLK1 (fluorogenic substrate H-DVal-Leu-Arg-AFC). How it is done: Selected compounds were further screened for inhibitory activity against the related enzyme KLK1. The ability of the compounds of formula (I) to inhibit KLK1 may be determined using the following biological assay:
Determination of the IC50 for KLK1
(§1) KLK1 inhibitory activity in vitro was determined using standard published methods (see e.g. Johansen et al., Int. J. Tiss. Reac. 1986, 8, 185; Shori et al., Biochem. Pharmacol., 1992, 43, 1209; Sturzebecher et al., Biol. Chem. Hoppe-Seyler, 1992, 373, 1025). Human KLK1 (Callbiochem) was incubated at 25° C. with the fluorogenic substrate H-DVal-Leu-Arg-AFC and various concentrations of the test compound. Residual enzyme activity (initial rate of reaction) was determined by measuring the change in optical absorbance at 410 nm and the IC50 value for the test compound was determined.

In test [2] the target is Human FXIa (Homo sapiens (Human), UniProt P03951). The test is described as follows: Determination of the % inhibition for FXIa (fluorogenic substrate Z-Gly-Pro-Arg-AFC; 40 μM or IC50). The method, then:
Selected compounds were further screened for inhibitory activity against the related enzyme FXIa. The ability of the compounds of formula (I) to inhibit FXIa may be determined using the following biological assay:
Determination of the % Inhibition for FXIa
FXIa inhibitory activity in vitro was determined using standard published methods (see e.g. Johansen et al., Int. J. Tiss. Reac. 1986, 8, 185; Shori et al., Biochem. Pharmacol., 1992, 43, 1209; Sturzebecher et al., Biol. Chem. Hoppe-Seyler, 1992, 373, 1025). Human FXIa (Enzyme Research Laboratories) was incubated at 25° C. with the fluorogenic substrate Z-Gly-Pro-Arg-AFC and 40 μM of the test compound (or alternatively at various concentrations of the test compound in order to determine IC50). Residual enzyme activity (initial rate of reaction) was determined by measuring the change in optical absorbance at 410 nm and the IC50 value for the test compound was determined.

Test [3] has as its target Human plasma kallikrein (Homo sapiens (Human), UniProt P03952). The test is described as follows: Determination of the IC50 for plasma kallikrein (fluorogenic substrate H-DPro-Phe-Arg-AFC). Conditions: class symbols A-D, read-out: IC50 (human PKal). How it is done:
The ability of the compounds of formula (I) to inhibit plasma kallikrein may be determined using the following biological assay:
Determination of the IC50 for Plasma Kallikrein
as §1, with “Plasma kallikrein” for “KLK1”, “plasma kallikrein (Protogen)” for “KLK1 (Callbiochem)”, “H-DPro-Phe-Arg-AFC” for “H-DVal-Leu-Arg-AFC”

Human FXIa, sequence (P03951 388-625): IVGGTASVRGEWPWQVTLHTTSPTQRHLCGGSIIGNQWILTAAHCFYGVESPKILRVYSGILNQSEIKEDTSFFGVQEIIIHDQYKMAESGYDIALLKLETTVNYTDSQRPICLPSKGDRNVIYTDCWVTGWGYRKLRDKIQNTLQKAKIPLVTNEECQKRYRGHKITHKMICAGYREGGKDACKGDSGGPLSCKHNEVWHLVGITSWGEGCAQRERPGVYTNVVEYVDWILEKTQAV
Human FXIa, sequence (P03951 19-387 partner): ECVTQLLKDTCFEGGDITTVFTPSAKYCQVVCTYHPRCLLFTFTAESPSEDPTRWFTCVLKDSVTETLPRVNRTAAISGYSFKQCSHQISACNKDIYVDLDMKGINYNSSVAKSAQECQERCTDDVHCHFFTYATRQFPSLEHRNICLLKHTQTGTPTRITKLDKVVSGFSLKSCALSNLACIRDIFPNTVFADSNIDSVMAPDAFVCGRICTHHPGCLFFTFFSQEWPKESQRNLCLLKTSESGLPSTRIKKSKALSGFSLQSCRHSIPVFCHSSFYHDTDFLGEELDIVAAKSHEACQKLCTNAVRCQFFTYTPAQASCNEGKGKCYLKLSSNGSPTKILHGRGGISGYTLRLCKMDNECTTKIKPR
Human plasma kallikrein, sequence (P03952 391-638): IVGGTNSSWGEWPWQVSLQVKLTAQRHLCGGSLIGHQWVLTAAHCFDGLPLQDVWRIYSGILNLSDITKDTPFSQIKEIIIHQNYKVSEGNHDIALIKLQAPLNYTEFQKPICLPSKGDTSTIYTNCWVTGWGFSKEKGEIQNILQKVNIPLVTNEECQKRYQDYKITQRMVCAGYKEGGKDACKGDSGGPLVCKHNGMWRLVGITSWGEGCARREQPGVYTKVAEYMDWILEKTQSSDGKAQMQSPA
Human plasma kallikrein, sequence (P03952 20-390 partner): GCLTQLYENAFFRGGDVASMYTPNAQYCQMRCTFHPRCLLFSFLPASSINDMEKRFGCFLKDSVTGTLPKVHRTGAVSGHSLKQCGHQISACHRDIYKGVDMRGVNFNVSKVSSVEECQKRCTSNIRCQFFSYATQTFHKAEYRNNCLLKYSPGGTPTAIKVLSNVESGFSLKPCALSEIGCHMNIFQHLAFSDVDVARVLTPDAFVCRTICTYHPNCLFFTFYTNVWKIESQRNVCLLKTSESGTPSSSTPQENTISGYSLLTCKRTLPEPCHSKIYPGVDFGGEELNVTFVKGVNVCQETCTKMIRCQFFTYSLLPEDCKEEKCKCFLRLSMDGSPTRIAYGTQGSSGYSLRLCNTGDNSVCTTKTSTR
Human KLK1, sequence (P06870 25-262): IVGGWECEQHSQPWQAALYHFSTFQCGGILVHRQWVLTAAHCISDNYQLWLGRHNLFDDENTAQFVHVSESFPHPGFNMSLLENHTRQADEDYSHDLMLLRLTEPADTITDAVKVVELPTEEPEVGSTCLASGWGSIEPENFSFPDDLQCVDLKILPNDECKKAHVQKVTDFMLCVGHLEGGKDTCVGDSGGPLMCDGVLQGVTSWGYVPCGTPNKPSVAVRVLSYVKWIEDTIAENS

A word on the IC50: it is the concentration at which inhibition is half-maximal. On to `CCc1ncn(-c2ccc(OC)c(F)c2CNC(=O)c2cn(Cc3ccc4c(c3)CN(C)CC4)nc2COC)n1` [Example 6, N-{[6-(3-ethyl-1,2,4-triazol-1-yl)-2-fluoro-3-methoxyphenyl]methyl}-3-(methoxymethyl)-1-[(2-methyl-3,4-dihydro-1H-isoquinolin-7-yl)methyl]pyrazole-4-carboxamide], for which the IC50 in test [1] is > 40000 nM; in test [2], > 40000 nM; in test [3] it was < 10 nM.

For `COc1ccc(-n2cc(C)nn2)c(CNC(=O)c2ccn(Cc3ccc4c(c3)CN(C)CC4)c(=O)c2)c1F` [Example 159, N-{[2-fluoro-3-methoxy-6-(4-methyl-1,2,3-triazol-1-yl)phenyl]methyl}-1-[(2-methyl-3,4-dihydro-1H-isoquinolin-7-yl)methyl]-2-oxopyridine-4-carboxamide], the IC50 in test [1] is > 40000 nM; in test [2] it was > 40000 nM; in test [3], 100 to 1000 nM.

Take `COc1ccc(-n2cnc(C(F)(F)F)n2)c(CNC(=O)c2cnn(Cc3ccc4c(c3)CN(C(C)C)CC4)c2)c1F` [Example 32, N-({2-fluoro-3-methoxy-6-[3-(trifluoromethyl)-1,2,4-triazol-1-yl]phenyl}methyl)-1-[(2-isopropyl-3,4-dihydro-1H-isoquinolin-7-yl)methyl]pyrazole-4-carboxamide]: the IC50 is > 40000 nM in test [1], 19600 nM in test [2] and < 10 nM in test [3].

For the molecule `COc1ccc(-n2cc(C)nn2)c(CNC(=O)c2cn(Cc3ccc4c(c3)CN(C)CC4)nc2C(F)F)c1F` [Example 33, 3-(difluoromethyl)-N-{[2-fluoro-3-methoxy-6-(4-methyl-1,2,3-triazol-1-yl)phenyl]methyl}-1-[(2-methyl-3,4-dihydro-1H-isoquinolin-7-yl)methyl]pyrazole-4-carboxamide], the half-maximal inhibitory concentration (IC50) in test [3] is < 10 nM.

Turning to `COCc1nn(Cc2ccc3c(c2)CNC3)cc1C(=O)NCc1c(-n2cc(C)nn2)ccc(OC)c1F` [Example 53, 1-(2,3-dihydro-1H-isoindol-5-ylmethyl)-N-{[2-fluoro-3-methoxy-6-(4-methyl-1,2,3-triazol-1-yl)phenyl]methyl}-3-(methoxymethyl)pyrazole-4-carboxamide], the IC50 in test [1] was > 4000 nM; in test [2] it was > 4000 nM; in test [3], 30 to 100 nM.

Turning to `COCc1nn(Cc2cnc3c(c2)CCN(C)C3)cc1C(=O)NCc1c(-n2cc(C)nn2)ccc(OC)c1F` [Example 102, N-{[2-fluoro-3-methoxy-6-(4-methyl-1,2,3-triazol-1-yl)phenyl]methyl}-3-(methoxymethyl)-1-[(7-methyl-6,8-dihydro-5H-1,7-naphthyridin-3-yl)methyl]pyrazole-4-carboxamide], the IC50 was > 40000 nM in test [1], 34200 nM in test [2] and < 10 nM in test [3].

Consider `COCc1nn(Cc2ccc3c(c2)CN(C)CC3)cc1C(=O)NCc1c(-n2ccc(C(F)(F)F)n2)ccc(OC)c1F` [Example 8, N-({2-fluoro-3-methoxy-6-[3-(trifluoromethyl)pyrazol-1-yl]phenyl}methyl)-3-(methoxymethyl)-1-[(2-methyl-3,4-dihydro-1H-isoquinolin-7-yl)methyl]pyrazole-4-carboxamide], for which the IC50 in test [1] is > 40000 nM; in test [2], > 40000 nM; in test [3], 10 to 30 nM.

As for `COCc1nn(Cc2ccc3c(c2)CN(C2CC2)CC3)cc1C(=O)NCc1c(-n2cnc(C(F)F)n2)ccc(OC)c1F` [Example 19, 1-[(2-cyclopropyl-3,4-dihydro-1H-isoquinolin-7-yl)methyl]-N-({6-[3-(difluoromethyl)-1,2,4-triazol-1-yl]-2-fluoro-3-methoxyphenyl}methyl)-3-(methoxymethyl)pyrazole-4-carboxamide], the IC50 in test [1] is > 40000 nM; in test [2] it was > 40000 nM; in test [3], < 10 nM.

Regarding `COCc1nn(Cc2ccc3c(c2)CCN(C2CC2)C3)cc1C(=O)NCc1c(-n2cnc(C(F)F)n2)ccc(OC)c1F` [Example 47, 1-[(2-cyclopropyl-3,4-dihydro-1H-isoquinolin-6-yl)methyl]-N-({6-[3-(difluoromethyl)-1,2,4-triazol-1-yl]-2-fluoro-3-methoxyphenyl}methyl)-3-(methoxymethyl)pyrazole-4-carboxamide], the IC50 is > 40000 nM in test [1], > 40000 nM in test [2] and 30 to 100 nM in test [3].

With `COCc1nn(Cc2cc(F)c3c(c2)CCN(C)C3)cc1C(=O)NCc1c(-n2cc(C)nn2)ccc(OC)c1F` [Example 116, 1-[(8-fluoro-2-methyl-3,4-dihydro-1H-isoquinolin-6-yl)methyl]-N-{[2-fluoro-3-methoxy-6-(4-methyl-1,2,3-triazol-1-yl)phenyl]methyl}-3-(methoxymethyl)pyrazole-4-carboxamide], the IC50 in test [1] was > 4000 nM; in test [2], > 4000 nM; in test [3] it was < 10 nM.

For `COCc1nn(Cc2ccc3c(c2)CN(C)CCO3)cc1C(=O)NCc1c(-n2cc(C)nn2)ccc(OC)c1F` [Example 108, N-{[2-fluoro-3-methoxy-6-(4-methyl-1,2,3-triazol-1-yl)phenyl]methyl}-3-(methoxymethyl)-1-[(4-methyl-3,5-dihydro-2H-1,4-benzoxazepin-7-yl)methyl]pyrazole-4-carboxamide], the figures for the IC50 in test [1], in test [2] and in test [3] were > 40000 nM, > 40000 nM and 100 to 1000 nM, respectively.

As to `COCc1nn(Cc2ccc3c(c2)CN(C2CC2)CC3)cc1C(=O)NCc1c(-n2ccc(C#N)n2)ccc(OC)c1F` [Example 21, N-{[6-(3-cyanopyrazol-1-yl)-2-fluoro-3-methoxyphenyl]methyl}-1-[(2-cyclopropyl-3,4-dihydro-1H-isoquinolin-7-yl)methyl]-3-(methoxymethyl)pyrazole-4-carboxamide], the IC50 in test [1] is > 40000 nM; in test [2] it was 36800 nM; in test [3], < 10 nM.

As to `COCc1nn(Cc2nc3c(s2)CN(C)CC3)cc1C(=O)NCc1c(-n2cc(C)nn2)ccc(OC)c1F` [Example 109, N-{[2-fluoro-3-methoxy-6-(4-methyl-1,2,3-triazol-1-yl)phenyl]methyl}-3-(methoxymethyl)-1-({5-methyl-4H,6H,7H-[1,3]thiazolo[5,4-c]pyridin-2-yl}methyl)pyrazole-4-carboxamide], the results for the IC50 in test [1], in test [2] and in test [3] were > 40000 nM, > 40000 nM and 100 to 1000 nM, respectively.

With `COCc1nn(Cc2ccc3c(c2)C(C)(C)N(C)CC3)cc1C(=O)NCc1c(-n2cc(C)nn2)ccc(OC)c1F` [Example 129, N-{[2-fluoro-3-methoxy-6-(4-methyl-1,2,3-triazol-1-yl)phenyl]methyl}-3-(methoxymethyl)-1-[(1,1,2-trimethyl-3,4-dihydroisoquinolin-7-yl)methyl]pyrazole-4-carboxamide], in test [3], the IC50 lay within 10 to 30 nM.

On to `COc1ccc(-n2cc(C)nn2)c(CNC(=O)c2cn(Cc3ccc4c(n3)CN(C)CC4)nc2C(F)(F)F)c1F` [Example 131, N-{[2-fluoro-3-methoxy-6-(4-methyl-1H-1,2,3-triazol-1-yl)phenyl]methyl}-1-[(7-methyl-5,6,7,8-tetrahydro-1,7-naphthyridin-2-yl)methyl]-3-(trifluoromethyl)-1H-pyrazole-4-carboxamide], for which the IC50 in test [3] is 10 to 30 nM.

On to `COCc1nn(Cc2ccc3c(c2)CNCC3(C)C)cc1C(=O)NCc1c(-n2cc(C)nn2)ccc(OC)c1F` [Example 130, 1-[(4,4-dimethyl-2,3-dihydro-1H-isoquinolin-7-yl)methyl]-N-{[2-fluoro-3-methoxy-6-(4-methyl-1,2,3-triazol-1-yl)phenyl]methyl}-3-(methoxymethyl)pyrazole-4-carboxamide], for which the IC50 in test [3] was in the range of 10 to 30 nM.

As for `COCc1nn(Cc2ccc3c(c2)C(C)(C)NCC3)cc1C(=O)NCc1c(-n2cc(C)nn2)ccc(OC)c1F` [Example 128, 1-[(1,1-dimethyl-3,4-dihydro-2H-isoquinolin-7-yl)methyl]-N-{[2-fluoro-3-methoxy-6-(4-methyl-1,2,3-triazol-1-yl)phenyl]methyl}-3-(methoxymethyl)pyrazole-4-carboxamide], the IC50 in test [3] was 30 to 100 nM.
